In patent US20260125428A1, “SYNTHETIC TRIPLEX PEPTIDE NUCLEIC ACID-BASED INHIBITORS FOR CANCER THERAPY” (University of Connecticut, priority 2022, published 2026):

Experiments:
[1] = test system: C-Myc oncogene; experiment: Gene expression (RT-PCR) of C-Myc and downstream targets in U2932 cells; type: cell-based, human; conditions: 24 h
Method: (§1) FIGS. 4A-F show effect of cellular uptake of indicated PNAs. (4A) Expression levels of C-Myc oncogene in U2932 (DLBCL), Raji and Daudi cells (Burkitt's lymphoma) in comparison to the peripheral blood mononuclear cells (PBMC). (4B) Cell viability of U2932 cells after 24 h treatment with indicated PNAs at different doses. (4C) Cell viability of Raji cells after 24 h treatment with indicated PNAs at different doses. (4D) Gene expression levels of C-Myc oncogene and its downstream targets including MCL1 and EZH2 in U2932 cells after 24 h of treatment with γPNA1-NLS, γPNA2-NLS, and ScrγPNA4-NLS at 8 μM. (4E) Gene expression levels of C-Myc oncogene and its downstream targets including BCL2 and EZH2 in Raji cells after 24 h of treatment with γPNA1-NLS, γPNA2-NLS, and ScrγPNA4-NLS at 8 μM. (4F) Gene expression levels of C-Myc in U2932 cells after 24 h treatment with γPNA2-NLS and ScrγPNA4-NLS at indicated doses.
(§2) Gene expression: The levels of mRNA were measured in different cell lines using real time-polymerase chain reaction (RT-PCR). Both untreated (PBMC, U2932, Raji, Daudi) and PNA treated lymphoma cells were collected at the end of treatment. Total RNA was extracted using Qiagen RNeasy® kit (USA) and concentration was measured by Nanodrop™. cDNA was synthesized using high capacity cDNA reverse transcription kit (Applied Biosystem, USA) following the recommended cycling conditions. Taqman® gene expression assay for C-Myc, EZH2, BCL2, MCL1 and GAPDH were used to amplify the respective mRNAs using the specified cycling conditions in the CFX Real-Time PCR detection system. GAPDH was used as the reference gene and fold change in mRNA expression was obtained by normalizing against the untreated cells or cells treated with HDAC inhibitors.

[2] = test system: C-Myc oncogene; experiment: Gene expression (RT-PCR) in U2932 cells after combination treatment; type: cell-based, human
Method: as §2

[3] = test system: U2932 derived xenografts; experiment: Tumor growth and survival study in U2932 derived xenograft mice; type: in vivo; conditions: 5 mg/kg systemic on day 1, 4, 7, and 10; for survival of the mice: saline 21 days
Method: FIGS. 7A-C show survival data of mice after systemic administration of indicated PNAs. (7A) Graph representing the tumor volume of U2932 xenografts after systemic treatment with indicated PNAs (n≥4 mice per group). PNAs were administered systemically on day 1, 4, 7, and 10 (n≥4 mice per group). (7B) The survival of U2932 derived xenograft mice after treatment with γPNA2-NLS, γPNA3, and ScrγPNA4-NLS at 5 mg/kg dose in comparison to the control (saline) mice. (7C) Complete blood count analysis of mice from different groups at the end of the study. RBC: red blood cells; WBC: white blood cells; HGB: hemoglobin; PLT: platelets; HCT: hematocrit; MCH: […]. (D) Blood chemistry analysis of mice from different groups at the end of the study. ALT: alanine transaminase; AST: aspartate transaminase; BUN: blood urea nitrogen; LDH: Lactate dehydrogenase. Results are presented as mean±SEM (n≥4).
In vivo studies in xenograft mice model: U2932 derived xenografts were generated by implanting 10 million cells subcutaneously on the lower right flank of the female NSG mice (NOD.Cg-Prkdc^scidIl2rg^tm1Wj1/SzJ, #005557, Jackson Laboratories, USA) of 5-6 weeks. The mice were maintained in the animal care facility at the University of Connecticut following the required Institutional Animal Care and Use Committee guidelines (IACUC). Mice developed palpable tumors after 3-4 weeks of implantation. Tumor dimensions including length (l), breadth (b), and height (h) were measured using a caliper and volume was calculated using the formula for ellipsoid (0.5236×lbh).
Survival study: Mice bearing tumors about 100-150 mm^3 were divided into 4 groups. Mice were treated with either γPNA2-NLS, γPNA3, Scr-γPNA4-NLS, or saline. PNAs were administered at 5 mg/kg dose on day 1, 4, 7, and 10. The change in tumor volume was measured every day. Mice were euthanized when the tumor volume reached 2000 mm^3. Blood was collected via cardiac punter in 1.5 ml tubes containing 0.5 M EDTA. Organs including tumor, liver, kidney, spleen, heart and lung were collected. Tumor fraction and all organs were kept in 10% formalin and submitted for histology. The complete blood count analysis was performed on the collected blood samples using Sysmex CBC analyzer. Plasma was separated from the blood samples and submitted to Antech diagnostic for blood chemistry analysis to quantify the levels of alanine transaminase, lactate dehydrogenase, aspartate transaminase and blood urea nitrogen.

[4] = test system: U2932 cells; experiment: Viability of U2932 cells, combination of PNAs with HDAC inhibitors and other drugs
Method: FIGS. 9A-D show cell viability after treatment with indicated PNAs. (9A) The viability of U2932 cells after treatment with γPNA1-NLS (8 μM), romidepsin (10 nM) and combination of γPNA1-NLS with romidepsin over 96 hours. (9B) The viability of U2932 cells after treatment with γPNA2-NLS (8 μM), romidepsin (10 nM) and combination of γPNA2-NLS with romidepsin over 96 hours. (9C) Fold change in C-Myc levels after combination of γPNA1-NLS and γPNA2-NLS with romidepsin in comparison to only romidepsin treatment. (9D) Fold change in BCL2 levels after combination of γPNA1-NLS and γPNA2-NLS with romidepsin in comparison to only romidepsin treatment.
FIGS. 10A-F show the viability of U2932 cells after indicated treatment. (10A) Viability of U2932 cells after treatment with γPNA2-NLS […], vorinostat (2.5 μM) and combination of γPNA2-NLS with vorinostat over 96 hours. (10B) The viability of U2932 cells after treatment with γPNA2-NLS (8 μM), valproic acid (2 mM) and combination of γPNA2-NLS with valproic acid over 96 hours. […] (10E) The viability of U2932 cells after treatment with CHOP (cyclophosphamide, vincristine, doxorubicin, prednisone) and combination of γPNA2-NLS with CHOP at different doses.
Cell viability: U2932 and Raji cells were seeded in 96 well plates at 20,000 cells/well. PNAs were added to the media at different concentrations (1, 2, 4, and 8 μM). […] The cell viability was then measured via trypan blue staining on day 1, 2, and 4.

[5] = test system: C-Myc oncogene; experiment: Gene expression (RT-PCR) of C-Myc and downstream targets in Raji cells; type: cell-based, human; conditions: 24 h, 8 μM
Method: as §1, §2

[6] = test system: U2932 cells; experiment: Cell viability (trypan blue) of U2932 cells; type: cell-based; conditions: 24 h, different doses
Method: as §1

[7] = test system: Raji cells; experiment: Cell viability (trypan blue) of Raji cells; type: cell-based; conditions: 24 h, different doses
Method: as §1

Substance: JJJTJJJT-OOO-TCCCTCCCTCCGTTCTTTTTCCC-K-OOO-VKRKKKP (gamma PNA tail clamp; linkers; NLS peptide; gammaPNA to target C-Myc Exon 1; misc_feature 1 JJJTJJJT-linker- is covalently linked to the backbone, wherein J is pseudoisocytosine and the linker is 11-Amino-3,6,9-Trioxaundecanoic Acid (DCHA), represented as -OOO-; misc_feature 23 -K-linker-SEQ ID NO: 5 is covalently linked to the backbone, wherein the linker is 11-Amino-3,6,9-Trioxaundecanoic Acid (DCHA), represented as -OOO-; modified_base 1) [γPNA2-NLS]
- dose of maximum knockdown of C-Myc ([1]; different doses): 8 µM
- decrease in the levels of C-Myc ([1]; RT-PCR, 8 μM): > 50%
- levels of downstream targets MCL1 and EZH2 ([1]; RT-PCR, 8 μM): significant decrease in the levels of MCL1 and EZH2
- knockdown of c-myc, combination with valproic acid ([2]; 96 h, valproic acid 2 mM): higher knockdown of c-myc
- knockdown of c-myc, combination with vorinostat ([2]; 96 h, vorinostat 2.5 uM, PNA 8 μM): higher knockdown of c-myc
- BCL-2 levels, combination with romidepsin in comparison to only romidepsin ([2]; day 4): reduced levels
- decrease in C-Myc levels, combination with romidepsin compared with only romidepsin ([2]; day 4, PNA 8 uM, romidepsin 10 nM): > 90%
- efficacy on tumor growth in comparison to γPNA3 [3]: superior efficacy
- tumor growth in comparison to the control groups [3]: significantly reduced tumor growth
- survival of the mice [3]: 29 days
- viability, combination with venetoclax ([4]; U2932 cells, over time): significant reduction in viability
- combination effect with romidepsin on viability (in words) ([4]; U2932 cells, romidepsin 10 nM, PNA 8 uM): synergistic activity
- viability, combination with CHOP ([4]; U2932 cells, trypan blue, 24 h and 48 h): significant reduction in viability
- viability, combination with valproic acid in comparison to the individual treatments ([4]; U2932 cells, valproic acid 2 mM, PNA 8 μM, over 96 hours): significant decrease in viability
- combination effect with vorinostat on viability ([4]; U2932 cells, vorinostat 2.5 μM, over 96 hours): synergistic activity
- decrease in U2932 cell viability, combination with romidepsin ([4]; romidepsin 10 nM pretreatment 24 h, PNA 8 uM, day 4): approximately 80%
- decrease in the levels of C-Myc [5]: > 50%
- levels of downstream targets BCL2 and EZH2 [5]: downregulation of BCL2 and EZH2
- viability of U2932 cells [6]: significant decrease in the viability
- viability of Raji cells [7]: significant decrease in the viability

Substance: X5CCTCCCTTCTTCCTTCTCCCTTGX2 (gamma PNA; NLS peptide; scramble gammaPNA; misc_feature 1 TJJJJJJTJ-linker- is covalently linked to the backbone, wherein J is pseudoisocytosine and the linker is 11-Amino-3,6,9-Trioxaundecanoic Acid (DCHA), represented as -OOO-; misc_feature 23 -K-linker-SEQ ID NO: 5 is covalently linked to the backbone, wherein the linker is 11-Amino-3,6,9-Trioxaundecanoic Acid (DCHA), represented as -OOO-; modified_base 1..23 OTHER; p) [ScrγPNA4-NLS, reference compound]
- knockdown of C-Myc at different doses (in words) ([1]; different doses): no activity
- levels of downstream targets MCL1 and EZH2 ([1]; RT-PCR, 8 μM): no change in their levels
- survival of the mice [3]: 19.5 days
- levels of downstream targets BCL2 and EZH2 [5]: no change in their levels
- viability of U2932 cells [6]: no impact on the viability
- viability of Raji cells [7]: no impact on the viability
